IC50 data for two compounds are collected here from BindingDB's records for patent US9777020 (AbbVie Inc, 2017).

The assay deals with High affinity nerve growth factor receptor (Homo sapiens, UniProt P04629).
Sequence of High affinity nerve growth factor receptor (P04629 whole entry): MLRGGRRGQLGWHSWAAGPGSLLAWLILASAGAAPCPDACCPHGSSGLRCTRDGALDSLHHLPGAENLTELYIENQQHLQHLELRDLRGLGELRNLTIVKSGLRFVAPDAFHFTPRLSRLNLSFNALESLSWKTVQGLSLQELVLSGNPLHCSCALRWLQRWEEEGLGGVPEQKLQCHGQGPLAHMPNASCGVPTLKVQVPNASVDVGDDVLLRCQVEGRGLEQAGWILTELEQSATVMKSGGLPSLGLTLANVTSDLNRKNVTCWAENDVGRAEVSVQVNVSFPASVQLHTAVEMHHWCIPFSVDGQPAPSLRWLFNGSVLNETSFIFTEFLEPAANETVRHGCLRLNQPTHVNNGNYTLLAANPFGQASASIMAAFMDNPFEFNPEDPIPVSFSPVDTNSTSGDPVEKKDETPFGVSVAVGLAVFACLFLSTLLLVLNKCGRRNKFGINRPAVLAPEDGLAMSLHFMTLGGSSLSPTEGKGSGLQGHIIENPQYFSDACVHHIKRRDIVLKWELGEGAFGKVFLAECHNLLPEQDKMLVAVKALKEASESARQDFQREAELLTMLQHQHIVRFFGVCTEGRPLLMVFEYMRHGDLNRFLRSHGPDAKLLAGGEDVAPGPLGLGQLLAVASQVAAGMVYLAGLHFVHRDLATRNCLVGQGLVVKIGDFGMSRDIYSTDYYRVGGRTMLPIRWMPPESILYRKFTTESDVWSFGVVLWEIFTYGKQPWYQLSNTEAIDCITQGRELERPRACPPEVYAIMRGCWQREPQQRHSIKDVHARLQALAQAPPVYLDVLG

`CCOc1nc(N2CCOCC2)ccc1NC(=O)c1coc2c1C(=O)NCC2` [US9777020, Example 106] gave a half-maximal inhibitory concentration (IC50) of 28.6 nM.
The compound `Cc1nc2ccc(NC(=O)c3coc4c3C(=O)NCC4)cc2s1` [US9777020, Example 15] had an IC50 of 69.3 nM.

By IC50 is commonly meant the point on the concentration scale where inhibition reaches its midpoint. High values mean weaker potency in that assay, low ones greater potency in that assay.
